{
  "source": "PubChem BioAssay AID292",
  "about": "(DTP/NCI, 2004)",
  "system": "B6C3F1 mice, ip Sarcoma M5076, median survival T/C",
  "assay": "NCI In Vivo Anticancer Drug Screen. Data for tumor model Sarcoma M5076 (intraperitoneal) in B6C3F1 mice",
  "details": "endpoint: median survival time, higher = longer survival",
  "outline": "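Tumour cells were transplanted into mice, compound or vehicle was given, survival of both groups was followed, and the treated figure was expressed over the control figure.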",
  "key": {"[1]": {"details": "dose: 25.0 mg/kg/injection, schedule: Q04DX004 (ip), vehicle: saline with Tween-80"}, "[2]": {"details": "dose: 50.0 mg/kg/injection, schedule: Q04DX004 (ip), vehicle: saline with Tween-80"}, "[3]": {"details": "dose: 100.0 mg/kg/injection, schedule: Q04DX004 (ip), vehicle: saline with Tween-80"}, "[4]": {"details": "dose: 200.0 mg/kg/injection, schedule: Q04DX004 (ip), vehicle: saline with Tween-80"}, "[5]": {"details": "dose: 400.0 mg/kg/injection, schedule: Q04DX004 (ip), vehicle: saline with Tween-80"}, "[6]": {"details": "dose: 12.5 mg/kg/injection, schedule: Q04DX004 (ip), vehicle: saline with Tween-80"}},
  "note": "“And” between values parts separate entries of the source, which are not always exact repeats. Identical values can stand only once. Inconclusive results and toxic doses are left out. Peptide text beside a SMILES is read from it. * marks the point of attachment. Trt = c1ccc(C(c2ccccc2)(c2ccccc2)*)cc1; Cbz = O=C(OCc1ccccc1)*; Bn = c1ccc(C*)cc1; βAla = NCCC(=O)O",
  "data": [
    {"smiles": "Cc1c(/C=C/C(=O)O)no[n+]1[O-]", "values": [
      {"measurement": "T/C", "setting": "[1]", "value": "100 % of control"},
      {"measurement": "T/C", "setting": "[2]", "value": "101 % of control"},
      {"measurement": "T/C", "setting": "[3]", "value": "101 % of control"},
      {"measurement": "T/C", "setting": "[4]", "value": "101 % of control"},
      {"measurement": "T/C", "setting": "[5]", "value": "93 % of control"}
    ]},
    {"smiles": "CN(C)C(=O)Nc1ccc(Cl)cc1", "values": [
      {"measurement": "T/C", "setting": "dose: 25.0 mg/kg/injection, schedule: Q04DX004 (ip), vehicle: suspension in saline", "value": "107 % of control"},
      {"measurement": "T/C", "setting": "dose: 50.0 mg/kg/injection, schedule: Q04DX004 (ip), vehicle: suspension in saline", "value": "94 % of control and 105 % of control and 113 % of control"},
      {"measurement": "T/C", "setting": "dose: 100.0 mg/kg/injection, schedule: Q04DX004 (ip), vehicle: suspension in saline", "value": "91 % of control and 102 % of control and 104 % of control"},
      {"measurement": "T/C", "setting": "dose: 200.0 mg/kg/injection, schedule: Q04DX004 (ip), vehicle: suspension in saline", "value": "92 % of control and 97 % of control and 113 % of control"},
      {"measurement": "T/C", "setting": "dose: 400.0 mg/kg/injection, schedule: Q04DX004 (ip), vehicle: suspension in saline", "value": "95 % of control and 98 % of control and 99 % of control"}
    ]},
    {"smiles": "OC1OCC(COc2ccc(Cl)cc2)OC1O", "note": "(configuration not stated)", "values": [
      {"measurement": "T/C", "setting": "[2]", "value": "103 % of control"},
      {"measurement": "T/C", "setting": "[3]", "value": "114 % of control"},
      {"measurement": "T/C", "setting": "[4]", "value": "93 % of control"},
      {"measurement": "T/C", "setting": "[5]", "value": "104 % of control"}
    ]},
    {"smiles": "COC(=O)C(CSC(c1ccccc1)(c1ccccc1)c1ccccc1)NC(=O)C(CSCc1ccccc1)NC(=O)CCNC(=O)OCc1ccccc1", "note": "(configuration not stated) ({Cbz-βAla}-Cys(Bn)-Cys(Trt)-OMe; configuration not given here)", "values": [
      {"measurement": "T/C", "setting": "dose: 50.0 mg/kg/injection, schedule: Q04DX004 (ip), vehicle: Klucel (hydroxypropylcellulose) (HPC)", "value": "102 % of control"},
      {"measurement": "T/C", "setting": "dose: 100.0 mg/kg/injection, schedule: Q04DX004 (ip), vehicle: Klucel (hydroxypropylcellulose) (HPC)", "value": "97 % of control"},
      {"measurement": "T/C", "setting": "dose: 200.0 mg/kg/injection, schedule: Q04DX004 (ip), vehicle: Klucel (hydroxypropylcellulose) (HPC)", "value": "106 % of control"},
      {"measurement": "T/C", "setting": "dose: 400.0 mg/kg/injection, schedule: Q04DX004 (ip), vehicle: Klucel (hydroxypropylcellulose) (HPC)", "value": "89 % of control"},
      {"measurement": "T/C", "setting": "dose: 800.0 mg/kg/injection, schedule: Q04DX004 (ip), vehicle: Klucel (hydroxypropylcellulose) (HPC)", "value": "107 % of control"}
    ]},
    {"smiles": "CC(=O)OC1C(O)C(C)OC(OC2C(OC(=O)C3CCC4C(C3)OC3(CC(OC(=O)/C=C/c5ccccc5)C(C)CO3)C43CO3)OC(C)C(O)C2OC(C)=O)C1O", "note": "(configuration not stated)", "values": [
      {"measurement": "T/C", "setting": "dose: 1.0 mg/kg/injection, schedule: Q01DX009 (ip), vehicle: saline + alcohol", "value": "100 % of control"},
      {"measurement": "T/C", "setting": "dose: 1.0 mg/kg/injection, schedule: Q04DX004 (ip), vehicle: saline + alcohol", "value": "107 % of control"},
      {"measurement": "T/C", "setting": "dose: 2.0 mg/kg/injection, schedule: Q01DX009 (ip), vehicle: saline + alcohol", "value": "105 % of control"},
      {"measurement": "T/C", "setting": "dose: 2.0 mg/kg/injection, schedule: Q04DX004 (ip), vehicle: saline + alcohol", "value": "112 % of control"},
      {"measurement": "T/C", "setting": "dose: 4.0 mg/kg/injection, schedule: Q01DX009 (ip), vehicle: saline + alcohol", "value": "113 % of control"},
      {"measurement": "T/C", "setting": "dose: 4.0 mg/kg/injection, schedule: Q04DX004 (ip), vehicle: saline + alcohol", "value": "116 % of control"},
      {"measurement": "T/C", "setting": "dose: 8.0 mg/kg/injection, schedule: Q01DX009 (ip), vehicle: saline + alcohol", "value": "121 % of control"},
      {"measurement": "T/C", "setting": "dose: 12.96 mg/kg/injection, schedule: Q04DX004 (ip), vehicle: saline + alcohol", "value": "123 % of control"},
      {"measurement": "T/C", "setting": "dose: 21.6 mg/kg/injection, schedule: Q04DX004 (ip), vehicle: saline + alcohol", "value": "115 % of control"},
      {"measurement": "T/C", "setting": "dose: 36.0 mg/kg/injection, schedule: Q04DX004 (ip), vehicle: saline + alcohol", "value": "157 % of control"},
      {"measurement": "T/C", "setting": "dose: 60.0 mg/kg/injection, schedule: Q04DX004 (ip), vehicle: saline + alcohol", "value": "116 % of control"},
      {"measurement": "T/C", "setting": "dose: 100.0 mg/kg/injection, schedule: Q04DX004 (ip), vehicle: saline + alcohol", "value": "115 % of control"}
    ]},
    {"smiles": "Oc1c(Cl)cc(Cl)cc1C1Nc2ccccc2-n2cccc21", "note": "(configuration not stated)", "values": [
      {"measurement": "T/C", "setting": "[6]", "value": "90 % of control"},
      {"measurement": "T/C", "setting": "[1]", "value": "88 % of control"},
      {"measurement": "T/C", "setting": "[2]", "value": "86 % of control and 92 % of control"},
      {"measurement": "T/C", "setting": "[5]", "value": "87 % of control"},
      {"measurement": "T/C", "setting": "dose: 800.0 mg/kg/injection, schedule: Q04DX004 (ip), vehicle: saline with Tween-80", "value": "91 % of control"}
    ]},
    {"smiles": "NC(Cc1ccc[se]1)C(=O)O", "note": "(configuration not stated)", "values": [
      {"measurement": "T/C", "setting": "[6]", "value": "94 % of control"},
      {"measurement": "T/C", "setting": "[1]", "value": "103 % of control"},
      {"measurement": "T/C", "setting": "[2]", "value": "109 % of control"}
    ]},
    {"smiles": "CCOP1(OCC)(SSC)OC(=O)C(C)S1", "note": "(configuration not stated)", "values": [
      {"measurement": "T/C", "setting": "dose: 18.75 mg/kg/injection, schedule: Q04DX004 (ip), vehicle: saline with Tween-80", "value": "92 % of control"},
      {"measurement": "T/C", "setting": "dose: 37.5 mg/kg/injection, schedule: Q04DX004 (ip), vehicle: saline with Tween-80", "value": "88 % of control"},
      {"measurement": "T/C", "setting": "dose: 75.0 mg/kg/injection, schedule: Q04DX004 (ip), vehicle: saline with Tween-80", "value": "98 % of control"}
    ]},
    {"smiles": "CO[C@@]12[C@@H]3N[C@@H]3CN1C1=C(C(=O)C(N3CCCC3)=C(C)C1=O)[C@@H]2COC(N)=O", "values": [
      {"measurement": "T/C", "setting": "dose: 6.25 mg/kg/injection, schedule: Q04DX004 (ip), vehicle: saline with Tween-80", "value": "269 % of control"},
      {"measurement": "T/C", "setting": "[6]", "value": "183 % of control"}
    ]},
    {"smiles": "CCN(CC)CCn1[nH]c2c3ccc(=O)cc3sc3c(NCCN)ccc1c32", "values": [
      {"measurement": "T/C", "setting": "dose: 3.12 mg/kg/injection, schedule: Q04DX004 (ip), vehicle: water", "value": "194 % of control"},
      {"measurement": "T/C", "setting": "dose: 6.25 mg/kg/injection, schedule: Q04DX004 (ip), vehicle: water", "value": "155 % of control and 163 % of control and 200 % of control"},
      {"measurement": "T/C", "setting": "dose: 12.5 mg/kg/injection, schedule: Q04DX004 (ip), vehicle: water", "value": "178 % of control and 201 % of control and 239 % of control"}
    ]}
  ]
}
